Measurements from the supplement of paper PMC10307832.

Tests used:
Assay in all cases: relative viability (nuclei count vs DMSO), 5 days (fraction); higher = more cells survive
Ispinesib + Olaparib = compound: Cc1ccc(C(=O)N(CCCN)[C@@H](c2nc3cc(Cl)ccc3c(=O)n2Cc2ccccc2)C(C)C)cc1 [Ispinesib] + O=C(c1cc(Cc2n[nH]c(=O)c3ccccc23)ccc1F)N1CCN(C(=O)C2CC2)CC1 [Olaparib] (partner 8 µM)
How it was run: (§1)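 Lung cancer cell lines in 1536-well plates got either a single drug or a fixed anchor-drug dose together with five library-drug doses (not always all listed) in √10 steps, by pin tool, on the day after seeding. Nuclei were counted after 5 days, and relative viability is the treated-to-vehicle ratio of nuclei counts. Values are medians of duplicate plates.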

Linsitinib + Bortezomib = compound: C[C@]1(O)C[C@@H](c2nc(-c3ccc4ccc(-c5ccccc5)nc4c3)c3c(N)nccn32)C1 [Linsitinib] + CC(C)C[C@H](NC(=O)[C@H](Cc1ccccc1)NC(=O)c1cnccn1)B(O)O [Bortezomib] (partner 0.002 µM)
How it was run: as §1

Linsitinib + Pemetrexed = compound: C[C@]1(O)C[C@@H](c2nc(-c3ccc4ccc(-c5ccccc5)nc4c3)c3c(N)nccn32)C1 [Linsitinib] + Nc1nc2[nH]cc(CCc3ccc(C(=O)N[C@@H](CCC(=O)O)C(=O)O)cc3)c2c(=O)[nH]1 [Pemetrexed] (partner 0.2 µM)
How it was run: as §1

Ispinesib + Crizotinib = compound: Cc1ccc(C(=O)N(CCCN)[C@@H](c2nc3cc(Cl)ccc3c(=O)n2Cc2ccccc2)C(C)C)cc1 [Ispinesib] + C[C@@H](Oc1cc(-c2cnn(C3CCNCC3)c2)cnc1N)c1c(Cl)ccc(F)c1Cl [Crizotinib] (partner 1 µM)
How it was run: as §1

Cell Line	relative viability (Ispinesib + Olaparib; first compound 0.001 µM)	relative viability (Ispinesib + Olaparib; first compound 0.003162 µM)	relative viability (Ispinesib + Olaparib; first compound 0.01 µM)	relative viability (Ispinesib + Olaparib; first compound 0.03162 µM)	relative viability (Ispinesib + Olaparib; first compound 0.1 µM)	relative viability (Linsitinib + Bortezomib; first compound 0.01 µM)	relative viability (Linsitinib + Bortezomib; first compound 0.03162 µM)	relative viability (Linsitinib + Bortezomib; first compound 0.1 µM)	relative viability (Linsitinib + Bortezomib; first compound 0.3162 µM)	relative viability (Linsitinib + Bortezomib; first compound 1 µM)	relative viability (Linsitinib + Pemetrexed; first compound 0.01 µM)	relative viability (Linsitinib + Pemetrexed; first compound 0.03162 µM)	relative viability (Linsitinib + Pemetrexed; first compound 0.1 µM)	relative viability (Linsitinib + Pemetrexed; first compound 0.3162 µM)	relative viability (Linsitinib + Pemetrexed; first compound 1 µM)	relative viability (Ispinesib + Crizotinib; first compound 0.001 µM)	relative viability (Ispinesib + Crizotinib; first compound 0.003162 µM)	relative viability (Ispinesib + Crizotinib; first compound 0.01 µM)	relative viability (Ispinesib + Crizotinib; first compound 0.03162 µM)	relative viability (Ispinesib + Crizotinib; first compound 0.1 µM)
HCC-44	0.984	0.993	1.03	1.06	0.938	0.841	0.775	0.874	0.497	0.529	0.624	0.511	0.618	0.555	0.6	0.796	0.905	0.951	0.776	0.121
RERF-LC-KJ	0.934	0.791	0.427	0.22	0.328	0.95	1.03	1.16	0.892	0.927	0.414	0.461	0.48	0.349	0.491	0.884	0.83	0.982	0.587	0.301
NCI-H1975	0.864	0.802	0.842	0.922	0.181	0.332	0.348	0.373	0.404	0.296	0.287	0.239	0.293	0.287	0.289	1.09	1.02	1.08	0.491	0.205
IA-LM	0.916	0.938	1.15	1.02	0.155	0.748	0.824	0.789	0.648	0.678	–	–	–	–	–	0.897	0.912	0.7	0.131	0.199
LCLC-97TM1	0.396	0.544	0.406	0.318	0.216	0.316	0.488	0.578	0.236	0.18	0.157	0.159	0.188	0.124	0.157	0.291	0.381	0.508	0.236	0.175
NCI-H520	0.364	0.328	0.388	0.188	0.278	0.666	0.331	0.754	–	0.62	0.623	0.377	0.762	–	0.598	0.783	0.631	0.781	0.346	0.438
A-427	0.714	0.784	0.728	0.696	0.22	0.974	1.02	0.987	–	0.869	0.951	1.03	0.986	–	0.866	0.886	1.23	0.968	0.887	0.369
ABC-1	1.04	0.955	0.838	–	0.41	0.325	0.291	0.276	0.284	0.252	–	–	–	–	–	1.1	1.15	0.908	0.248	0.334
NCI-H1395	0.436	0.446	0.439	0.369	0.356	–	–	–	–	–	0.77	–	0.979	0.673	0.835	–	–	–	–	–
EBC-1	0.772	0.725	0.792	0.669	0.171	0.59	0.536	0.579	0.519	0.442	–	–	–	–	–	0.189	0.194	0.194	0.167	0.152
NCI-H358	0.624	0.671	0.761	0.569	0.214	–	–	–	–	–	0.187	0.168	0.183	0.141	0.162	0.617	0.515	0.665	0.409	0.424
NCI-H727	0.642	0.771	–	0.659	0.633	0.86	0.856	0.948	0.392	0.501	–	–	–	–	–	–	0.943	1.02	0.632	0.408
A549	0.417	0.276	0.37	0.194	0.0705	–	–	–	–	–	–	–	–	–	–	0.88	0.903	0.849	0.0553	0.181
NCI-H1563	–	–	–	–	–	0.835	0.86	0.87	0.719	0.827	0.791	0.883	0.718	1.09	0.752	0.826	0.776	0.782	0.949	0.781
NCI-H1703	0.601	0.312	0.246	0.127	0.105	0.416	–	0.317	0.288	0.314	–	–	–	–	–	0.811	0.454	0.185	0.0885	0.285
NCI-H1299	1.02	0.993	1.07	0.986	0.478	1.06	0.972	1.05	0.944	0.986	–	–	–	–	–	1.01	0.977	1.02	0.805	0.469
NCI-H2342	0.413	0.423	0.423	0.453	0.328	–	–	–	–	–	0.731	0.746	0.732	0.82	0.704	–	–	–	–	–
SW 900	0.858	0.889	0.914	0.827	0.418	–	–	–	–	–	0.484	0.44	0.478	0.438	0.405	–	–	–	–	–
NCI-H1944	0.436	0.454	0.491	0.418	0.406	–	–	–	–	–	0.597	0.574	0.661	0.426	0.492	1.2	1.16	1.18	0.697	0.573
NCI-H2170	0.593	0.679	0.651	0.481	0.444	–	–	–	–	–	0.255	0.241	0.251	–	0.276	1.34	1.31	1.33	0.693	0.411
NCI-H1793	1.04	0.833	1.19	0.752	0.371	–	–	–	–	–	0.834	0.819	0.842	0.584	0.63	–	–	–	–	–
